According to US20070249717A1, “PREVENTIVE/THERAPEUTIC AGENT FOR VISCERAL PAIN” (AJINOMOTO CO. INC, priority 2004, published 2007):

What was measured:
NK2 receptor = target: T1, NK2 receptor (Oryctolagus cuniculus, UniProt P79218); test: Action on NK2 receptor: [βAla^8]NKA(4-10)-induced contraction of isolated rabbit pulmonary artery; format: cell-based
T1 construct: The pulmonary artery was isolated from a rabbit; from tissue; host or cells: isolated rabbit pulmonary artery
T1 sequence (P79218 1-384): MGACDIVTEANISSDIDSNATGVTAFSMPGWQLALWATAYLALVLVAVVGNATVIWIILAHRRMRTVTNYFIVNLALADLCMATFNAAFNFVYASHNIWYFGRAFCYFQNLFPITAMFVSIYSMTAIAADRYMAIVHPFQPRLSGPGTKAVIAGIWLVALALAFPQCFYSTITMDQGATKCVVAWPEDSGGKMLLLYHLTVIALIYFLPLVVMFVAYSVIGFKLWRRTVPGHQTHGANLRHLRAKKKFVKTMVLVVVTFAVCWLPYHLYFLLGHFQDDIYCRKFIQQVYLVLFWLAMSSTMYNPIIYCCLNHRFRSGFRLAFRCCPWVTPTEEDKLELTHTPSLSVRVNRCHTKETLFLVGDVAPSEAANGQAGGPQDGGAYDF
Description: A test for NK2 receptor was performed according to the method reported by Emonds et al. (Emonds-Alt X., Advenier, C., Croco, T. Manara, L., Neliat, G., Poncelet, M., Proietto, V., Santucci, V., Soubrie, P., Van Broeck, D., Vilain, P., Le Fur, G. and Breliere, J. C. (1993) SR 48968, a neurokinin A (NK2) receptor antagonist Regul. Peptides. 46: 31-36). The pulmonary artery was isolated from a rabbit. The isolated tissue was hung in a solution of buffer (NaCl 118.0, KCl 4.7, MgSO4 1-2, CaCl2 2.5, KH2PO41.2, NaHCO3 25, glucose 11.0 (pH 7 4) (unit:mM) 37° C.) aerated with oxygen (95% oxygen, 5% carbon dioxide), added with benexytramine (1 μM, a receptor antagonist), propranolol (1 μM, β receptor antagonist), pyrilamine (1 μM, histamine H1 receptor antagonist), atropine (1 μM, muscarinic receptor antagonist) and metiserglde (1 μM, 5-HT2 receptor antagonist). After 60 min or more, lysine (0.3, 3, 30 mM) was added to the buffer, and the contraction of the pulmonary artery due to [βAla^8]NKA(4-10) was measured.
In Table 2, the pulmonary artery contraction by [βAla^8]NKA(4-10) was calculated as 100%.

[1] = tested on: stress-induced colon distension rat model (visceral pain); test: Visceral perceptual threshold in stress-induced colon distension visceral pain rat model; details: for visceral perceptual threshold that decreased due to the stress: stressed SD rat, from 10 min after administration, Dunnett's test
5-HT4 receptor = details: cited from earlier work
GABAB receptor = target: T2, GABAB receptor (Cavia porcellus, UniProt A0A286X9P6); test: Action on GABAB receptor: electrically stimulated contraction of isolated guinea pig ileum; format: cell-based; details: for contraction (%): ileum contraction by electric stimulation calculated as 100%
T2 construct: The ileum was isolated from a guinea pig; from tissue; host or cells: isolated guinea pig ileum
T2 sequence (A0A286X9P6 30-844): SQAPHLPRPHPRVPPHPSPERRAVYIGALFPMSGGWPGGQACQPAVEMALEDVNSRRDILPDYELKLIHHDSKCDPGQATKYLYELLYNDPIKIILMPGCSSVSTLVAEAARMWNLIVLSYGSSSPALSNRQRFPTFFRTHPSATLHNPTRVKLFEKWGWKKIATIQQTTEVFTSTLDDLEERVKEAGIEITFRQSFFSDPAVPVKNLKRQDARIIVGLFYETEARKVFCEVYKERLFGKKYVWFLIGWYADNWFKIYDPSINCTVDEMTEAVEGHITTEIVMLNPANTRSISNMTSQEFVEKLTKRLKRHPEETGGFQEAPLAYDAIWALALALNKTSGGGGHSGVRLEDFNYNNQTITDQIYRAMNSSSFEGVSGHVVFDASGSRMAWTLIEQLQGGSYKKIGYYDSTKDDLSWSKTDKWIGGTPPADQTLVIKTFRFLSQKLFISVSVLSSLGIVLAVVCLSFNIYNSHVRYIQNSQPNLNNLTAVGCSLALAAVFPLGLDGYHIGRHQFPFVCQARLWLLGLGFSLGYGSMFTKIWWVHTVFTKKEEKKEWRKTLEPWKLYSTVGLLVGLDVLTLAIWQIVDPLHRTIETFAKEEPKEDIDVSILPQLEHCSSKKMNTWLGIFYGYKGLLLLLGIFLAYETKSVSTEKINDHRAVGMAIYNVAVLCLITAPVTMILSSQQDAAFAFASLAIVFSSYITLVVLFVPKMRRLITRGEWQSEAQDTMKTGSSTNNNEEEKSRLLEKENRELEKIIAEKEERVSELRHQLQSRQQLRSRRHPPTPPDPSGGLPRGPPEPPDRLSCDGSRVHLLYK
T2 sequence (H0V741 1-820 partner): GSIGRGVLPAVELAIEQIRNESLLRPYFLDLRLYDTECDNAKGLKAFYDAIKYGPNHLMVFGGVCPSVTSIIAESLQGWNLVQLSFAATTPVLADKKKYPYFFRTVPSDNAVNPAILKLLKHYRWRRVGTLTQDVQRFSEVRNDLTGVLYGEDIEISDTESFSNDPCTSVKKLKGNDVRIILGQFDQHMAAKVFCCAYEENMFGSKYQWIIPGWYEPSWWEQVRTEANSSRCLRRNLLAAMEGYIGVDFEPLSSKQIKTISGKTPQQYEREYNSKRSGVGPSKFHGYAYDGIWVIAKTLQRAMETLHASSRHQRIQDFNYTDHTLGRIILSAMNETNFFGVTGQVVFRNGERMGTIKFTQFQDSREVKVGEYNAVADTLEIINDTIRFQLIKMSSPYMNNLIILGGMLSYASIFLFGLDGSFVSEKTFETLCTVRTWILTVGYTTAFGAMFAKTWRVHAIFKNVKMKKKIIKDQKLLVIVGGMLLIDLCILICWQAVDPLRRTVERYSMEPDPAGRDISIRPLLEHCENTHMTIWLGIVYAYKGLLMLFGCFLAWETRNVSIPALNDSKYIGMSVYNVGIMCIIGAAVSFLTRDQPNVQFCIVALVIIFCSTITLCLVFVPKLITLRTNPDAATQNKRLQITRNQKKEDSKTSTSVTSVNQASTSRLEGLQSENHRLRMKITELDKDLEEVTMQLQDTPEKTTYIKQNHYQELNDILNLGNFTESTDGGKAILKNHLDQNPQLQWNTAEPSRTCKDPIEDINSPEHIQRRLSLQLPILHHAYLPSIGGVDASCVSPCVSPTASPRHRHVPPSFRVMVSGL
Description: A test for GABAB receptor was performed according to the method reported by Kerr et al. (Kerr, D. I. B. Ong, J., Johnston, G. A. R. Abbenante, J. and Prager, R. H. (1988) 2-hydroxy-saclofen: an improved antagonist at central and peripheral GABAB receptors. Neurosci. Lett. 92: 92-96). The ileum was isolated from a guinea pig. […]
In Table 1, the ileum contraction by electric stimulation was calculated as 100%.

wrap stress rat model = details: in vivo; cited from earlier work

| contraction (%) (NK2 receptor; 3 × 10^−4 mM, agonist alone, reference set as 100%) | Molecule | contraction (%) (NK2 receptor; 0.3 mM, contraction by [βAla^8]NKA(4-10) calculated as 100%) | contraction (%) (NK2 receptor; 3.0 mM, contraction by [βAla^8]NKA(4-10) calculated as 100%) | contraction (%) (NK2 receptor; 30 mM, contraction by [βAla^8]NKA(4-10) calculated as 100%) | pulmonary artery contraction via NK2 receptor (NK2 receptor; 0.3-30 mM, isolated rabbit pulmonary artery) | time for which significant increase of visceral perceptual threshold was observed ([1]; 1 g/kg or 3 g/kg orally) | visceral perceptual threshold that decreased due to the stress ([1]; 1 g/kg orally) | visceral perceptual threshold that decreased due to the stress ([1]; 3 g/kg orally) | action at 5-HT4 receptor (5-HT4 receptor) | contraction (%) (GABAB receptor; 0.3 mM) | contraction (%) (GABAB receptor; 3.0 mM) | contraction (%) (GABAB receptor; 30 mM) | ileum contraction via GABAB receptor (GABAB receptor; 0.3-30, isolated guinea pig ileum) | effect on wrap stress rat model (wrap stress rat model) |
| --- | --- | --- | --- | --- | --- | --- | --- | --- | --- | --- | --- | --- | --- | --- |
|  | NCCCC[C@H](N)C(=O)O [lysine] | 85% | 41% | 19% | suppressed the pulmonary artery contraction via NK2 receptor, in a dose-dependent manner | about 2 hr | significantly increased | significantly increased | 5-HT4 receptor antagonist | 0% | −20% | −77% | suppressed the ileum contraction via GABAB receptor, in a dose-dependent manner | treatment effect |
| 100% | [βAla^8]NKA(4-10) [reference compound] |  |  |  |  |  |  |  |  |  |  |  |  |  |
